Data published in US6057085A, “Color photographic recording material” (Agfa-Gevaert NV, priority 1997, dated 2000).

Assay: log P(o/w), n-octanol/water two phase system
Type: physicochemical
Description: *log P(o/w) is the decimal logarithm of the distribution coefficient
of a substance in the noctanol/water two phase system.

logP	SMILES
< 5	CN(C)c1ccc(C=C(C#N)c2nc3cc(C(=O)O)ccc3o2)cc1 [Dye I-1]
< 5	Cc1cc(N(CC(=O)OC(C)COC(C)COC(C)(C)C)CC(=O)OC(C)COC(C)COC(C)(C)C)ccc1C=C(C#N)c1nc2cc(C(=O)O)ccc2o1 (centres unmarked) [Dye I-6]
< 5	CCOCCOCCN(CCOCCOCC)c1ccc(C=C(C#N)c2nc3cc(S(=O)(=O)NC(=O)CC)ccc3s2)cc1 [Dye I-22]
< 5	CCOCCOCCN(CCOCCOCC)c1ccc(C=C(C#N)c2nc3cc(S(=O)(=O)NC(=O)CC)ccc3o2)cc1 [Dye I-10]
> 5	CCCCCCCCCCCCNc1cc(C)c(C=C(C#N)c2nc3ccc(NS(C)(=O)=O)cc3o2)cc1C [GF-5]
< 5	CCCCS(=O)(=O)Nc1ccc(C2=C(C#N)C(=O)OC2=Cc2ccco2)cc1 [GF-3]
> 5	CCCCCCCCCCCCCCCCS(=O)(=O)Nc1ccc2nc(C(C#N)=Cc3ccc(N(CC)CC)cc3C)sc2c1 [GF-4]
< 5	CCCCOC(=O)CN(CC(=O)OCCCC)c1ccc(C=C(C#N)C(=O)c2ccc(NS(C)(=O)=O)cc2)c(C)c1 [GF-2]
